What was measured:
[1] = system: aspergillus, penicillum, fusarium, and candida in nasal mucus; test: kill-off time in vitro of fungi in nasal mucus; format: cell-based; settings: 1% NCT-Na added to nasal mucus (diluted 1:10) of rhinosinusitis
Experimental: In the case of rhinosinusitis various species of fungus were found in the nasal mucus, e.g., aspergillus, penicillum, fusarium, and candida. If (diluted 1:10) 1% NCT-Na is added to this nasal mucus, then the kill-off time in vitro is less than 30 minutes.

[2] = treatment of rhinosinusitis patients by nasal catheter rinsing; format: in vivo, human
Source text: Treatments with traditional fungicidal agents have on the contrary previously led to no success.
The importance of the agent lies, among other things, in the fact that, in the case of the mucus tissue polyps occurring in rhinosinusitis, regression could be observed so that the previously successful standard therapy, namely operative removal, can be avoided by the use of the agent according to the invention.
A person suffers from chronic rhinosinusitis with clear swelling of the mucus membranes in both maxillary sinuses with retention of secretion on the left, in ethmoid bone cells, sphenoidal sinus, and in the left frontal sinus. Labored nasal respiration. For 2 1/2 months increasing headaches at the back of the head, no improvement on antibiotic therapy.
The treatment with 1% NCT-Na took place over a total of 4 weeks, 3 times weekly, and included 12 treatments in all. Each time a 10-ml NCT-Na solution was applied by means of a nasal catheter (YAMIK) over a period of time of 12 minutes. Thereafter the rinsing solution was suctioned off.
patient suffered from chronic rhinosinusitis for ca. 1 year with swelling of the mucus membranes and increased secretion in the nasal cavity and all its adjacent cavities, strong polyposis and loss of the sense of smell.

[3] = treatment of patients with otitis externa with saturated strips; format: in vivo, human; settings: changed daily
Experimental: A group of 10 patients who suffered from otitis externa with affliction of the auditory canal were treated. For treatment, 12 cm long strips (tampons by Rauscher) were placed into the external auditory canal. The test group (5 persons) was treated with strips which were saturated with 1-ml 1% NCT-Na, the control group (5 persons) with strips which were saturated with 1-ml otosporin (content per ml: 10,000 IU polymyxin B sulfate, 3.5 mg neomycin as neomycin sulfate, 10 mg hydrocortisone).
The treatment was done over 5 days. The strips were changed daily.

[4] = tolerability in vivo at various application sites; settings: eye, middle ear, outer ear, skin ulcers, oral cavity, bladder
[5] = treatment of patients with ulcus cruris with saturated swabs; format: in vivo, human; settings: Example 4, 1% NCT-Na versus 1% chloramine T control group
Experimental: A group of 25 patients who suffered from ulcus cruris were treated. The treatment was done with swabs which were saturated with an aqueous solution of 1% NCT-Na (test group, 14 patients) or 1% chloramine T (control group, 11 patients) and applied directly to the ulcers and left there. The treatment was done over 5-14 days. The swabs were changed twice daily.

## O=S(=O)(O)CCNCl [NCT-Na, N-chlorotaurine]
[1]
  kill-off time in vitro: less than 30 minutes
[2]; Example 1, 1% NCT-Na, after 7 treatments
  formation of secretion: strong decline
[2]; Example 1, 1% NCT-Na, after 9 treatments
  nasal respiration: clearly improved
[2]; Example 1, person, 1% NCT-Na 10 ml, 3 times weekly, after the second application
  pains: complete remission of the pains
[2]; Example 2, 1% NCT-Na, at the end of the treatments (12 treatments, 4 weeks)
  polyposis nasi: unambiguous regression
[2]; Example 2, patient, 1% NCT-Na 10 ml, 3 times weekly, after the sixth application
  sense of smell: substantial restoration
[2]; trials with rhinosinusitis patients, treatment of internal nasal surfaces with NCT-Na solution
  symptoms of rhinosinusitis (pains, head pressure, loss of sense of smell, increased secretion, polyp formation): improved substantially
[3]; Example 3, strips saturated with 1 ml 1% NCT-Na in external auditory canal, 5 days
  tolerability: well tolerated
[3]; Example 3, strips saturated with 1 ml test solution
  period until healing, on average: 3 days
[4]
  tolerability in vivo: tolerated outstandingly
[5]
  pains after application of the solution: significantly less pains
